Data published in the supplement of paper PMC10307832.

Assays:
Assay in all cases: relative viability (nuclei count vs DMSO), 5 days (fraction); higher = more cells survive
[1] = compound: NC(=O)[C@@H](CCC(F)(F)F)N(Cc1ccc(-c2ncon2)cc1F)S(=O)(=O)c1ccc(Cl)cc1 [Avagacestat] + CC(=O)c1c(C)c2cnc(Nc3ccc(N4CCNCC4)cn3)nc2n(C2CCCC2)c1=O [Palbociclib] (partner 0.5 µM)
Outline: (§1)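 Relative viability was taken as the ratio of nuclei in treated wells to nuclei in vehicle wells. Lung cancer cell lines in 1536-well plates received compounds by pin tool one day after seeding, either one drug alone or a fixed anchor-drug dose plus five library-drug doses (not always all listed) in √10 steps. Nuclei were counted on 4× images after 5 days of treatment, and values are medians of duplicate plates.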

[2] = compound: NC(=O)[C@@H](CCC(F)(F)F)N(Cc1ccc(-c2ncon2)cc1F)S(=O)(=O)c1ccc(Cl)cc1 [Avagacestat] + CC(C)C[C@H](NC(=O)[C@H](Cc1ccccc1)NC(=O)c1cnccn1)B(O)O [Bortezomib] (partner 0.002 µM)
Outline: as §1

[3] = compound: NC(=O)[C@@H](CCC(F)(F)F)N(Cc1ccc(-c2ncon2)cc1F)S(=O)(=O)c1ccc(Cl)cc1 [Avagacestat] + COc1cc2c(Oc3ccc(NC(=O)C4(C(=O)Nc5ccc(F)cc5)CC4)cc3F)ccnc2cc1OCCCN1CCOCC1 [Foretinib] (partner 0.25 µM)
Outline: as §1

[4] = compound: NC(=O)[C@@H](CCC(F)(F)F)N(Cc1ccc(-c2ncon2)cc1F)S(=O)(=O)c1ccc(Cl)cc1 [Avagacestat] + CS(=O)(=O)N1CCN(Cc2cc3nc(-c4cccc5[nH]ncc45)nc(N4CCOCC4)c3s2)CC1 [Pictilisib] (partner 1 µM)
Outline: as §1

Cell Line	relative viability ([1]; first compound 0.08 µM)	relative viability ([1]; first compound 0.253 µM)	relative viability ([1]; first compound 0.8 µM)	relative viability ([1]; first compound 2.53 µM)	relative viability ([1]; first compound 8 µM)	relative viability ([2]; first compound 0.08 µM)	relative viability ([2]; first compound 0.253 µM)	relative viability ([2]; first compound 0.8 µM)	relative viability ([2]; first compound 2.53 µM)	relative viability ([2]; first compound 8 µM)	relative viability ([3]; first compound 0.08 µM)	relative viability ([3]; first compound 0.253 µM)	relative viability ([3]; first compound 0.8 µM)	relative viability ([3]; first compound 2.53 µM)	relative viability ([3]; first compound 8 µM)	relative viability ([4]; first compound 0.08 µM)	relative viability ([4]; first compound 0.253 µM)	relative viability ([4]; first compound 0.8 µM)	relative viability ([4]; first compound 2.53 µM)	relative viability ([4]; first compound 8 µM)
201T	0.361	0.307	0.382	0.331	0.352	1.1	1.08	1.2	1.11	1.09	1.18	1.45	1.06	0.944	1.1	0.737	0.7	0.664	0.691	0.661
A-427	0.506	0.517	0.516	0.539	0.544	0.957	1.08	1.07	1.07	1.08	1.37	1.18	1.12	1.11	1.08	0.72	0.832	0.745	0.763	0.817
ABC-1	0.846	0.542	0.67	0.654	0.522	0.325	0.294	0.362	0.273	0.271	1.16	1.06	1.15	1	1.06	1	0.753	0.861	0.679	0.711
BEN	0.466	0.456	0.502	0.513	0.482	0.936	0.789	0.954	0.533	0.775	0.692	0.694	0.725	0.74	0.62	0.679	0.621	0.58	0.529	0.534
CAL-12T	0.535	0.384	0.474	0.478	0.5	1.13	0.982	1.42	1.09	1.14	1.35	1.25	1.24	1.02	1.16	0.734	0.47	0.719	0.624	0.48
COR-L23	0.283	0.266	0.284	0.276	0.217	1.58	1.3	1.14	1.03	0.528	1.12	1.28	1.1	0.901	0.952	1.07	0.878	0.774	0.653	0.397
COR-L 105	0.435	0.353	0.429	0.391	0.4	0.894	0.681	0.689	0.697	0.687	1.17	1.25	1.36	0.927	0.698	0.38	0.447	0.326	0.319	0.419
Calu-6	–	–	–	–	–	1.27	1.09	1.08	1.17	0.975	1.12	0.949	0.979	0.905	0.845	1.3	1.03	1.18	0.913	1.02
ChaGo-K-1	1.05	1.01	0.933	0.887	0.798	1.02	0.914	1.14	1.32	1.06	0.935	1	0.856	0.825	0.786	0.701	0.675	0.924	1.09	0.801
EKVX	0.392	0.374	0.405	0.365	0.293	1.18	1.44	1.23	0.885	0.9	0.859	0.742	1.08	0.798	0.795	0.443	0.528	0.523	0.393	0.435
EMC-BAC-2	0.539	0.577	0.556	0.52	0.543	1.22	1.17	1.23	1.08	1.11	1.06	1.09	1.06	0.904	0.968	0.567	0.554	0.564	0.489	0.517
EPLC-272H	0.368	0.344	0.327	0.32	0.291	1.02	1.02	1.05	1.21	0.922	0.72	0.662	0.825	0.602	0.661	0.325	0.273	0.346	0.371	0.241
H3255	0.312	0.361	0.331	0.373	0.401	1.02	0.966	1.08	0.817	0.788	0.857	0.913	0.934	0.891	0.949	0.488	0.544	0.494	0.481	0.474
HARA	0.26	0.237	0.248	0.263	0.24	1.71	1.09	1.17	1.16	1.07	1.1	1.39	0.863	0.867	0.77	0.368	0.517	0.417	0.342	0.373
HCC-15	0.906	1.01	0.78	0.68	0.694	1.22	1.21	1.24	0.973	0.921	1.14	1.16	1.15	0.958	1.01	0.837	0.801	0.802	0.808	0.611
HCC-44	0.976	0.997	0.983	1.04	1.01	1.06	1.09	0.934	0.965	0.829	–	–	–	–	–	0.548	0.782	0.588	0.484	0.569
HCC-78	0.493	0.488	0.511	0.478	0.441	0.508	0.51	0.514	0.313	0.366	0.588	0.523	0.542	0.492	0.54	0.179	0.222	0.244	0.192	0.235
HCC-366	0.355	0.34	0.465	0.332	0.333	–	1.98	1.29	1.22	0.887	1.01	1.05	0.944	1.01	1.04	0.137	0.36	0.0944	0.082	0.132
HCC-827	0.468	0.478	0.503	0.442	0.465	1.09	1.13	1.13	1.05	1.12	1.08	1.12	1.15	1	1.03	1.13	1.08	0.797	0.941	0.897

Cell Line	relative viability ([1]; first compound 0.08 µM)	relative viability ([1]; first compound 0.253 µM)	relative viability ([1]; first compound 0.8 µM)	relative viability ([1]; first compound 2.53 µM)	relative viability ([1]; first compound 8 µM)	relative viability ([2]; first compound 0.08 µM)	relative viability ([2]; first compound 0.253 µM)	relative viability ([2]; first compound 0.8 µM)	relative viability ([2]; first compound 2.53 µM)	relative viability ([2]; first compound 8 µM)	relative viability ([3]; first compound 0.08 µM)	relative viability ([3]; first compound 0.253 µM)	relative viability ([3]; first compound 0.8 µM)	relative viability ([3]; first compound 2.53 µM)	relative viability ([3]; first compound 8 µM)	relative viability ([4]; first compound 0.08 µM)	relative viability ([4]; first compound 0.253 µM)	relative viability ([4]; first compound 0.8 µM)	relative viability ([4]; first compound 2.53 µM)	relative viability ([4]; first compound 8 µM)
HOP-62	0.461	0.482	0.412	0.458	0.366	0.783	0.819	0.727	0.513	0.709	1.29	1.2	1.17	0.948	0.996	0.825	0.778	0.525	0.573	0.857
IA-LM	–	–	–	–	–	1.39	1.28	0.823	0.855	1.25	1.76	1.68	1.71	1.37	1.4	1.1	1.02	0.711	0.802	0.525
LC-2-ad	0.483	0.472	0.529	0.439	0.381	1.16	1.12	1.04	0.934	0.941	1	1.03	0.914	0.854	0.868	0.569	0.41	0.518	0.382	0.269
LK-2	0.949	0.818	0.64	0.542	0.824	–	–	–	–	–	1.72	1.7	1.07	1.07	0.93	0.653	0.76	0.429	0.473	0.541
NCI-H358	0.148	0.137	0.126	0.143	0.132	–	–	–	–	–	0.7	0.866	0.737	0.598	0.665	0.356	0.337	0.493	0.349	0.385
NCI-H522	1.13	1.2	1.08	0.954	0.946	–	–	–	–	–	–	–	–	–	–	–	–	–	–	–
NCI-H596	–	–	–	–	–	0.956	1.13	1.13	1.14	0.823	1	0.831	0.85	0.809	0.84	0.414	0.43	0.395	0.354	0.374
NCI-H1299	–	–	–	–	–	1.03	1.01	1	1.01	0.991	1.07	1.12	1.15	1.09	1.12	0.806	1.19	0.81	0.736	0.578
NCI-H1395	0.675	0.64	0.594	0.486	0.593	–	–	–	–	–	0.981	0.946	0.903	0.899	0.846	0.601	0.735	0.658	0.488	0.702
NCI-H1563	–	–	–	–	–	0.917	0.821	0.898	0.792	0.835	1.1	0.999	0.879	0.803	0.842	0.708	0.629	0.621	0.664	0.634
NCI-H1648	0.237	0.271	0.289	0.256	0.284	–	–	–	–	–	–	–	–	–	–	–	–	–	–	–
NCI-H1703	–	–	–	–	–	0.403	0.422	0.272	0.322	0.318	0.315	0.318	0.384	0.338	0.308	0.305	0.242	0.226	0.217	0.225
NCI-H1792	0.817	–	0.751	–	0.612	1.6	1.06	1.37	0.832	0.766	–	–	–	–	–	0.252	0.315	0.264	0.24	0.21
NCI-H1793	0.348	0.324	0.331	0.263	0.316	–	–	–	–	–	0.686	0.693	0.854	0.473	0.619	0.381	0.325	0.326	0.413	0.27
NCI-H1944	0.32	0.343	0.265	0.272	0.269	–	–	–	–	–	0.895	1.06	0.795	0.644	0.779	0.349	0.374	0.357	0.32	0.33
NCI-H2170	0.421	0.469	0.419	0.404	0.433	–	–	–	–	–	1.02	1.12	0.988	0.899	1.01	0.329	0.309	0.295	0.278	0.326
NCI-H2342	0.527	0.482	0.523	0.523	0.552	–	–	–	–	–	1.22	1.05	0.924	1.02	0.939	–	–	–	–	–
SK-MES-1	0.318	0.342	0.329	0.307	0.32	–	–	–	–	–	0.92	0.808	1.03	0.666	0.619	0.377	0.387	0.306	0.294	0.288
SW 900	0.627	0.618	0.645	0.453	0.505	–	–	–	–	–	1.38	1.32	0.967	0.612	1.2	–	–	–	–	–
